Results published in patent US8952024B2, “Herbicidal pyrimidone derivatives” (E I du Pont de Nemours and Company, priority 2009, dated 2015).

Legend:
Assay type in all cases: in vivo
[1] = test system: Surinam grass (Brachiaria decumbens); experiment: Test B pre-/postemergence plant response
Procedure, shortened: (§1)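 Test compounds, formulated in a non-phytotoxic solvent mixture with surfactant, are applied to the soil surface (loam and sand blend) right after seeding, or sprayed over plants at the 1- to 4-leaf stage grown in peat moss/vermiculite medium. After 13 to 15 days under glasshouse conditions, each species is scored visually from 0 (no effect) to 100 (complete control) against controls.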

[2] = test system: blackgrass (Alopecurus myosuroides); experiment: Test B pre-/postemergence plant response
Procedure, shortened: as §1

corn (Zea mays) = experiment: Test B pre-/postemergence plant response
Procedure, shortened: as §1

[3] = test system: giant foxtail (Setaria faberii); experiment: Test B pre-/postemergence plant response
Procedure, shortened: as §1

[4] = test system: goosegrass (Eleusine indica); experiment: Test B pre-/postemergence plant response
Procedure, shortened: as §1

[5] = test system: green foxtail (Setaria viridis); experiment: Test B pre-/postemergence plant response
Procedure, shortened: as §1

[6] = test system: johnsongrass (Sorghum halepense); experiment: Test B pre-/postemergence plant response
Procedure, shortened: as §1

[7] = test system: lambsquarters (Chenopodium album); experiment: Test B pre-/postemergence plant response
Procedure, shortened: as §1

[8] = test system: pigweed (Amaranthus retroflexus); experiment: Test B pre-/postemergence plant response
Procedure, shortened: as §1

[9] = test system: ragweed (common ragweed, Ambrosia elatior); experiment: Test B pre-/postemergence plant response
Procedure, shortened: as §1

wild oat (Avena fatua) = experiment: Test B pre-/postemergence plant response
Procedure, shortened: as §1

rice (Oryza sativa) = experiment: Test B flooded paddy test; details: for Plant response rating, Rice: Flood (flooded paddy test), 13 to 15 days
Procedure, shortened: (§2)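 Ratings are visual, 0–100 (100 = complete control), taken versus untreated controls 13 to 15 days after treatment in the greenhouse. Compound went straight into paddy water held 3 cm above soil, applied to 2-leaf-stage plants of four species.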

[10] = test system: umbrella sedge (Cyperus difformis); experiment: Test B flooded paddy test; details: for Plant response rating, Sedge, Umbrella: Flood (flooded paddy test), 13 to 15 days
Procedure, shortened: as §2

[11] = Postemergence, 31 g ai/ha, 0 to 100 scale (0 no effect, 100 complete control)
[12] = Postemergence, 62 g ai/ha, scale 0 to 100 (0 no effect, 100 complete control)
[13] = Postemergence, 250 g ai/ha, scale 0 to 100 (0 no effect, 100 complete control), 13 to 15 days
[14] = Preemergence, 31 g ai/ha, scale 0 to 100 (0 no effect, 100 complete control)
[15] = Preemergence, 62 g ai/ha, scale 0 to 100 (0 no effect, 100 complete control)
[16] = Preemergence, 125 g ai/ha, scale 0 to 100, 0 no effect, 100 complete control
[17] = Preemergence, 250 g ai/ha, 0 to 100 scale
[18] = Postemergence, 125 g ai/ha, scale 0 to 100 (0 no effect, 100 complete control)
[19] = 250 g ai/ha, flooded paddy test, visual rating on 0 to 100 scale (0 no effect, 100 complete control) after 13 to 15 days
[20] = 62 g ai/ha, scale of 0 to 100 where 0 is no effect and 100 is complete control
[21] = 125 g ai/ha, scale 0 to 100, 0 is no effect, 100 is complete control
[22] = Flood, 31 g ai/ha, scale 0 to 100 (0 no effect, 100 complete control)

## CCc1ccc(-n2c(-c3ccccc3)ncc(C(=O)C3=C(O)CCCC3=O)c2=O)cc1 [Compound 219]
[1]; [11]
  Plant response rating, Surinam Grass: 10
[1]; [12]
  Plant response rating, Surinam Grass: 25
[1]; [13]
  Plant response rating, Surinam Grass: 65
[1]; [14]
  Plant response rating, Surinam Grass: 10
[1]; [15]
  Plant response rating, Surinam Grass: 10
[1]; [16]
  Plant response rating, Surinam Grass: 45
[1]; [17]
  Surinam Grass plant response rating: 100
[2]; [11]
  Plant response rating, Blackgrass: 50
[2]; [12]
  Plant response rating, Blackgrass: 55
[2]; [18]
  Plant response rating, Blackgrass: 55
[2]; [13]
  Plant response rating, Blackgrass: 90
[2]; [14]
  Plant response rating, Blackgrass: 30
[2]; [15]
  Plant response rating, Blackgrass: 35
[2]; [16]
  Plant response rating, Blackgrass: 40
[2]; [17]
  Blackgrass plant response rating: 60
Corn (Zea mays); [11]
  Plant response rating, Corn: 10
Corn (Zea mays); [12]
  Plant response rating, Corn: 60
Corn (Zea mays); [18]
  Plant response rating, Corn: 75
Corn (Zea mays); [13]
  Plant response rating, Corn: 80
Corn (Zea mays); [14]
  Plant response rating, Corn: 0
Corn (Zea mays); [15]
  Plant response rating, Corn: 0
Corn (Zea mays); [16]
  Plant response rating, Corn: 0
Corn (Zea mays); [17]
  Corn plant response rating: 0
[3]; [11]
  Plant response rating, Foxtail, Giant: 70
[3]; [12]
  Plant response rating, Foxtail, Giant: 70
[3]; [18]
  Plant response rating, Foxtail, Giant: 80
[3]; [13]
  Plant response rating, Foxtail, Giant: 95
[3]; [14]
  Plant response rating, Foxtail, Giant: 0
[3]; [15]
  Plant response rating, Foxtail, Giant: 0
[3]; [16]
  Plant response rating, Foxtail, Giant: 10
[3]; [17]
  Foxtail, Giant plant response rating: 80
[4]; [11]
  Plant response rating, Goosegrass: 90
[4]; [12]
  Plant response rating, Goosegrass: 95
[4]; [18]
  Plant response rating, Goosegrass: 95
[4]; [13]
  Plant response rating, Goosegrass: 95
[4]; [14]
  Plant response rating, Goosegrass: 98
[4]; [15]
  Plant response rating, Goosegrass: 100
[4]; [16]
  Plant response rating, Goosegrass: 100
[4]; [17]
  Goosegrass plant response rating: 100
[5]; [11]
  Plant response rating, Foxtail, Green: 70
[5]; [12]
  Plant response rating, Foxtail, Green: 80
[5]; [18]
  Plant response rating, Foxtail, Green: 90
[5]; [13]
  Plant response rating, Foxtail, Green: 90
[5]; [14]
  Plant response rating, Foxtail, Green: 20
[5]; [15]
  Plant response rating, Foxtail, Green: 70
[5]; [16]
  Plant response rating, Foxtail, Green: 90
[5]; [17]
  Foxtail, Green plant response rating: 100
[6]; [12]
  Plant response rating, Johnsongrass: 60
[6]; [18]
  Plant response rating, Johnsongrass: 98
[6]; [13]
  Plant response rating, Johnsongrass: 100
[6]; [14]
  Plant response rating, Johnsongrass: 0
[6]; [15]
  Plant response rating, Johnsongrass: 15
[6]; [16]
  Plant response rating, Johnsongrass: 65
[6]; [17]
  Johnsongrass plant response rating: 80
[7]; [11]
  Plant response rating, Lambsquarters: 100
[7]; [12]
  Plant response rating, Lambsquarters: 100
[7]; [18]
  Plant response rating, Lambsquarters: 100
[7]; [13]
  Plant response rating, Lambsquarters: 100
[7]; [14]
  Plant response rating, Lambsquarters: 100
[7]; [15]
  Plant response rating, Lambsquarters: 100
[7]; [16]
  Plant response rating, Lambsquarters: 100
[7]; [17]
  Lambsquarters plant response rating: 100
[8]; [11]
  Plant response rating, Pigweed: 100
[8]; [12]
  Plant response rating, Pigweed: 100
[8]; [13]
  Plant response rating, Pigweed: 100
[8]; [14]
  Plant response rating, Pigweed: 100
[8]; [15]
  Plant response rating, Pigweed: 100
[8]; [16]
  Plant response rating, Pigweed: 100
[8]; [17]
  Pigweed plant response rating: 100
[9]; [11]
  Plant response rating, Ragweed: 80
[9]; [12]
  Plant response rating, Ragweed: 98
[9]; [13]
  Plant response rating, Ragweed: 100
[9]; [14]
  Plant response rating, Ragweed: 45
[9]; [15]
  Plant response rating, Ragweed: 75
[9]; [16]
  Plant response rating, Ragweed: 85
[9]; [17]
  Ragweed plant response rating: 98
Wild oat (Avena fatua); [11]
  Plant response rating, Oat, Wild: 50
Wild oat (Avena fatua); [12]
  Plant response rating, Oat, Wild: 70
Wild oat (Avena fatua); [13]
  Plant response rating, Oat, Wild: 85
Wild oat (Avena fatua); [14]
  Plant response rating, Oat, Wild: 0
Wild oat (Avena fatua); [15]
  Plant response rating, Oat, Wild: 0
Wild oat (Avena fatua); [16]
  Plant response rating, Oat, Wild: 5
Wild oat (Avena fatua); [17]
  Oat, Wild plant response rating: 40
Rice (Oryza sativa); [19]
  Plant response rating, Flood, Rice: 75
Rice (Oryza sativa); [20]
  Plant response rating, Rice: 0
Rice (Oryza sativa); [21]
  Plant response rating, Rice: 70
Rice (Oryza sativa); [22]
  Rice plant response rating: 0
[10]; [19]
  Plant response rating, Flood, Sedge, Umbrella: 85
[10]; [20]
  Plant response rating, Sedge, Umbrella: 40
[10]; [21]
  Plant response rating, Sedge, Umbrella: 60
[10]; [22]
  Sedge, Umbrella plant response rating: 20
